Test systems include SK-MEL-28; HCC 2998; UO-31; CCRF-CEM; RXF 393; NCI-H23; CAKI-1; ACHN; SNB-75; SN12C; OVCAR-8; IGROV-1; SK-MEL-2; OVCAR-5; LOX IMVI; HCT-116; Malme-3M.
Holding throughout (assay): DTP human tumour cell line panel, 48 h

The structures appear in SMILES notation.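 These data come from cells grown in 96-well plates and exposed to compound for 48 hours at five concentrations. GI50 marks 50% less growth.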 Calls of active or inactive are those of the source. No stated cut-off is given here; in the data, active = GI50 up to about 1.1 µM and inactive = higher.

With `CC(C)(C)C(=O)Nc1cccc2oc(-c3ccccc3)cc12`, the GI50 is > 100 µM (inactive) in the assay with SK-MEL-28; > 100 µM (inactive) in the assay with HCC 2998; 26.2 µM (inactive) in the assay with UO-31; > 100 µM (inactive) in the assay with CCRF-CEM; 17.3 µM (inactive) in the assay on RXF 393; > 100 µM (inactive) in the assay on NCI-H23. Further, the GI50 in the assay on CAKI-1 was > 100 µM (inactive); with ACHN, > 100 µM (inactive); in the assay with SNB-75, 85.1 µM (inactive); in the assay with SN12C, > 100 µM (inactive); with OVCAR-8, > 100 µM (inactive); with IGROV-1, > 100 µM (inactive). Besides, in the assay with SK-MEL-2, the GI50 is > 100 µM (inactive).
Take `Cc1ccccc1C(C#N)C(=O)C(=O)Nc1nc([N+](=O)[O-])cs1` (stereo not given): the GI50 with SK-MEL-28, in the assay on HCC 2998, with UO-31, in the assay on RXF 393, with OVCAR-5 and in the assay with NCI-H23 was > 100 µM (inactive) throughout. The GI50 with CAKI-1 was > 100 µM (inactive); in the assay on LOX IMVI, 40.2 µM (inactive); in the assay with HCT-116, > 100 µM (inactive); in the assay with ACHN, > 100 µM (inactive); in the assay with SNB-75 it was > 100 µM (inactive); with SN12C it was > 100 µM (inactive). The GI50 in the assay with OVCAR-8, in the assay with IGROV-1 and in the assay with Malme-3M was > 100 µM (inactive) in each case.
As for `O=C(O)CNS(=O)(=O)c1ccc(NC(=O)c2ccccc2[N+](=O)[O-])cc1`, the GI50 with SK-MEL-28, in the assay on UO-31, in the assay with CCRF-CEM, with RXF 393, with OVCAR-5 and with NCI-H23 was > 100 µM (inactive) each time. Moreover, the GI50 in the assay on CAKI-1, with LOX IMVI, in the assay on ACHN, with SNB-75, in the assay with SN12C and with OVCAR-8 was > 100 µM (inactive) throughout. Further, the GI50 in the assay with IGROV-1, in the assay on SK-MEL-2 and in the assay on Malme-3M was > 100 µM (inactive) in each case.
In the case of `O=S1(=O)c2cc(S(=O)(=O)n3ccnc3)ccc2NC2=NCCCN21`, the GI50 in the assay with SK-MEL-28 was > 100 µM (inactive); in the assay on HCC 2998, 23 µM (inactive); in the assay on UO-31, 31 µM (inactive); in the assay on CCRF-CEM, 21 µM (inactive); in the assay with OVCAR-5, 48.1 µM (inactive); in the assay on NCI-H23, 30.7 µM (inactive). Further, the GI50 with CAKI-1 was 38.8 µM (inactive); in the assay on LOX IMVI, 38.5 µM (inactive); in the assay with HCT-116, 29.7 µM (inactive); in the assay on ACHN, 34.3 µM (inactive); with SNB-75 it was 26.7 µM (inactive); with SN12C, 33.3 µM (inactive). Further, the GI50 in the assay with OVCAR-8 is 27.2 µM (inactive); with IGROV-1, 40.7 µM (inactive); with Malme-3M, 37.9 µM (inactive).
As to `CCOC(=O)C1C2CCC(C2)C1(CCl)C(=O)OCC` (stereo not given), the GI50 with SK-MEL-28, in the assay on HCC 2998, with UO-31, with CCRF-CEM, in the assay with OVCAR-5 and with NCI-H23 was > 100 µM (inactive) in each case. In addition, the GI50 in the assay on CAKI-1, in the assay on LOX IMVI, with HCT-116, in the assay on ACHN, with SN12C and in the assay on OVCAR-8 was > 100 µM (inactive) throughout. For the same compound, the GI50 in the assay with IGROV-1 and in the assay on Malme-3M was > 100 µM (inactive) each time.
`O=C(O)C1(C(=O)O)CC1`: the GI50 was > 100 µM (inactive) with SK-MEL-28; > 100 µM (inactive) with HCC 2998; > 100 µM (inactive) in the assay on UO-31; > 100 µM (inactive) in the assay with CCRF-CEM; 40 µM (inactive) in the assay on RXF 393; > 100 µM (inactive) in the assay with NCI-H23. Moreover, the GI50 in the assay on CAKI-1, in the assay on HCT-116, in the assay with ACHN, with SNB-75, in the assay with SN12C and with OVCAR-8 was > 100 µM (inactive) each time. The GI50 in the assay with IGROV-1, in the assay with SK-MEL-2 and with Malme-3M was > 100 µM (inactive) each time.
Take `C#CCN(N=O)C(=O)ON1C(=O)CCC1=O`: the GI50 was > 100 µM (inactive) in the assay on SK-MEL-28; > 100 µM (inactive) in the assay on UO-31; > 100 µM (inactive) with CCRF-CEM; > 100 µM (inactive) in the assay on RXF 393; 61.8 µM (inactive) in the assay with OVCAR-5; > 100 µM (inactive) in the assay on NCI-H23. The GI50 in the assay on LOX IMVI, in the assay with HCT-116, with ACHN, in the assay with SNB-75, in the assay with SN12C and in the assay with OVCAR-8 was > 100 µM (inactive) in each case. In addition, the GI50 with IGROV-1, in the assay with SK-MEL-2 and in the assay with Malme-3M was > 100 µM (inactive) throughout.
As for `CC1=C(C#N)C(=O)CC(c2ccc(Cl)cc2)N(C)N1` (stereo not given), the GI50 in the assay with SK-MEL-28, in the assay with HCC 2998, in the assay on RXF 393, in the assay with OVCAR-5, with NCI-H23 and with CAKI-1 was > 100 µM (inactive) each time. In addition, the GI50 in the assay on LOX IMVI, in the assay with HCT-116, in the assay with ACHN, in the assay on SNB-75, with SN12C and in the assay on SK-MEL-2 was > 100 µM (inactive) in each case. Further, the GI50 in the assay on Malme-3M was > 100 µM (inactive).
Consider `FC(F)(F)c1ccccc1/C=N/C12CC3CC(CC(C3)C1)C2`, for which the GI50 is > 100 µM (inactive) in the assay on SK-MEL-28; > 100 µM (inactive) in the assay with HCC 2998; 0.908 µM (active) with UO-31; > 100 µM (inactive) in the assay on RXF 393; > 100 µM (inactive) with OVCAR-5; > 100 µM (inactive) in the assay on NCI-H23. The GI50 in the assay on CAKI-1 is > 100 µM (inactive); in the assay on LOX IMVI it was > 100 µM (inactive); in the assay with HCT-116, > 100 µM (inactive); in the assay on ACHN, > 100 µM (inactive); with SNB-75, 86.1 µM (inactive); in the assay with SN12C, > 100 µM (inactive). The GI50 in the assay with OVCAR-8, with IGROV-1, with SK-MEL-2 and with Malme-3M was > 100 µM (inactive) in each case.
On to `N#CC(C#N)=C(C(C#N)C#N)C(C#N)C#N`, for which the GI50 with HCC 2998, with UO-31, in the assay with CCRF-CEM, in the assay with RXF 393, in the assay with OVCAR-5 and in the assay with NCI-H23 was > 100 µM (inactive) throughout. The GI50 with CAKI-1, in the assay on LOX IMVI, in the assay on HCT-116, with SNB-75, with SN12C and in the assay with OVCAR-8 was > 100 µM (inactive) each time. For the same compound, the GI50 with IGROV-1 and in the assay on Malme-3M was > 100 µM (inactive) each time.
